Results as given in article PMC12676349, “Design of Glycosyltransferase Inhibitors: Targeting the Biosynthesis of Glycosaminoglycans by Phosphonate-Xyloside” (ACS Omega, 2025).

How the values were obtained:
[1] = molecular target: T1, β-1,4-Galactosyltransferase 7 (β4GalT7) (Homo sapiens, UniProt Q9UBV7); assay: HPLC assay of GalXylNap formation from XylNap and UDP-Gal; format: biochemical
T1 construct: gene B4GALT7
T1 sequence (Q9UBV7 81-327): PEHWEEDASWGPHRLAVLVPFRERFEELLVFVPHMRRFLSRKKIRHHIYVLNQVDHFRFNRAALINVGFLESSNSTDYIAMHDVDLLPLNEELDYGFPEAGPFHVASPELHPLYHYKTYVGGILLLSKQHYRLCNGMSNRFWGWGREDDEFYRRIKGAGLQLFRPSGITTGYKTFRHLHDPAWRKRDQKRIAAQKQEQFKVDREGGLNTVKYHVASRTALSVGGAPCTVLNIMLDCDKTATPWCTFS
Description: HPLC assay of GalXylNap formation from XylNap and UDP-Gal on β-1,4-Galactosyltransferase 7 (β4GalT7) | display concentration-dependent inhibition of β4GalT7.

[2] = molecular target: T1, β-1,4-Galactosyltransferase 7 (β4GalT7); assay: STD NMR; format: binding

Row | SMILES | IC50 [1] [µM] | STD NMR [2]
1 | O=P(O)(O)CP(=O)(O)OCCO[C@@H]1COC(O)[C@H](O)[C@H]1O (mixture of isomers) [compound 4, 4-O-(2-(Methylene-diphosphoryl)-hydroxyethyl)-α/β-D-xylopyranose] | 188 | –
2 | CC(=O)N[C@H]1[C@@H](OP(=O)(O)OP(=O)(O)OC[C@H]2O[C@@H](n3ccc(=O)[nH]c3=O)[C@H](O)[C@@H]2O)O[C@H](CO)[C@H](O)[C@@H]1O [UDP-GalNAc] | – | β4GalT7 tolerates an N-acetyl group at C2 of the sugar residue
